Test results taken from patent US20130096067A1, “DROSOPHILA TUMOR STEM CELL MODEL AND USES THEREOF” (priority 2011, published 2013).
“And” between values parts separate entries of the source, which are not always exact repeats. Identical values can stand only once. Counter-ions that a name gives are not always drawn.

System: Raf-1^gof intestinal tumors
Settings: for Log2 (fold) of luciferase activity relative to DMSO controls / Fold (luciferase activity relative to DMSO controls): ICCB compounds fed in vials to flies with one-day old Raf-1^gof tumors; for Log2 (fold) of luciferase activity relative to DMSO controls / Fold (luciferase activity relative to DMSO controls) / Log2 (fold) (luciferase activity, log2 of the fold difference relative to DMSO controls) / Fold (luciferase activity, fold difference relative to DMSO controls): assessed three days later; for Fold (luciferase activity relative to DMSO controls) / Fold (luciferase activity, fold difference relative to DMSO controls): averaged from multiple wells; for Log2 (fold) (luciferase activity, log2 of the fold difference relative to DMSO controls) / Fold (luciferase activity, fold difference relative to DMSO controls): screen of 480 ICCB compounds in vials, compounds fed to flies with one-day old Raf-1^gof tumors, esg-Gal4 luciferase
Throughout, for Fold (luciferase activity relative to DMSO controls): test concentration or dose not given here.
Throughout, for Fold (luciferase activity, fold difference relative to DMSO controls): test concentration or dose not given here.
Throughout, for Log2 (fold) (luciferase activity, log2 of the fold difference relative to DMSO controls): test concentration or dose not given here.
Throughout, for Log2 (fold) of luciferase activity relative to DMSO controls: test concentration or dose not given here.

Structure (SMILES) | Log2 (fold) of luciferase activity relative to DMSO controls | Fold (luciferase activity relative to DMSO controls) [fold] | Log2 (fold) (luciferase activity, log2 of the fold difference relative to DMSO controls) | Fold (luciferase activity, fold difference relative to DMSO controls) | Fold (Table 3 summary of hits, Screen ICCB, luciferase relative to DMSO, fed three consecutive days in vials) [fold]
C=C1CC[C@H](O)C/C1=C/C=C1\CCC[C@]2(C)[C@@H]([C@H](C)CCCC(C)(C)O)CC[C@@H]12 [25-HYDROXYVITAMIN D3] | −0.113 | 0.925 | – | – | –
C=CCNC1=C2C[C@@H](C)C[C@H](OC)[C@H](O)[C@@H](C)/C=C(\C)[C@H](OC(N)=O)[C@@H](OC)/C=C\C=C(/C)C(=O)NC(=CC1=O)C2=O [17-Allylamino-geldanamycin] | – | – | −0.433 | 0.741 | –
CCCCCC=CCC=CCC=CC=CC(=O)CCCC(=O)O [5-KETOEICOSATETRAENOIC ACID] | – | – | −0.316 | 0.803 | –
CCCCCC1OC1C/C=C\C/C=C\C/C=C\CCCC(=O)O (stereo not drawn) [14,15-EPOXYEICOSATRIENOIC ACID] | 0.322 | 1.250 | – | – | –
Oc1c2ccccc2c2c3c(cccc13)N=N2 [SP-600125] | −0.100 | 0.933 | – | – | –
CC(=O)c1c(O)c(C)c(O)c(Cc2c(O)c3c(c(C(=O)/C=C/c4ccccc4)c2O)OC(C)(C)C=C3)c1O [Rottlerin] | – | – | −0.865 | 0.549 | –
CC(O)(C(=O)Nc1ccc(S(=O)(=O)c2ccccc2)cc1)C(F)(F)F (stereo not drawn) [ZM226600] | −0.117 | 0.922 | – | – | –
CCCNC(=O)[C@H]1O[C@@H]1C(=O)N[C@H](C(=O)N1CCC[C@H]1C(=O)OC)[C@@H](C)CC [CA-074-Me] | −0.114 | 0.924 | – | – | –
CCCCC/C=C\C\C=C/C=C/C=C/[C@@H](SC[C@H](N)C(=O)O)[C@@H](O)CCCC(=O)O [LEUKOTRIENE E4] | – | – | −0.439 | 0.737 | –
CCCCCCCC/C=C\CCCCCCCC(=O)OCC(CO)OC(C)=O (stereo not drawn) [1-OLEOYL-2-ACETYL-GLYCEROL] | – | – | −0.727 and −0.716 | 0.604 and 0.609 | –
Nc1cc(N2CCCCC2)nc(N)[n+]1OS(=O)(=O)[O-] [MINOXIDIL SULFATE] | – | – | −0.417 | 0.749 | –
CCCCC[C@H](O)/C=C/[C@H]1[C@H](O)CC(=O)[C@@H]1C/C=C\CCCC(=O)O [PROSTAGLANDIN E2] | – | – | −0.223 | 0.857 | –
COc1c(C)c2c(c(O)c1C/C=C(\C)CCC(=O)O)C(=O)OC2 [Mycophenolic acid] | – | – | −0.577 | 0.670 | –
Oc1cc(O)cc(/C=C/c2ccc(O)c(O)c2)c1 [Piceatannol, reference compound] | – | – | −1.020 | 0.493 | 0.493
COc1ccc([C@H]2Sc3ccccc3N(CCN(C)C)C(=O)[C@H]2OC(C)=O)cc1 [L-cis-DILTIAZEM] | 0.137 | 1.100 | – | – | –
COc1ccc(Cl)cc1C(=O)NCCc1ccc(S(=O)(=O)NC(=O)NC2CCCCC2)cc1 [GLYBURIDE] | – | – | −0.217 | 0.861 | –
Cc1cnc(C(=O)NCCc2ccc(S(=O)(=O)NC(=O)NC3CCCCC3)cc2)cn1 [GLIPIZIDE] | – | – | −0.417 | 0.749 | –
O=c1[nH]c2ccccc2n1C1CCN(CCCC(c2ccc(F)cc2)c2ccc(F)cc2)CC1 [PIMOZIDE] | – | – | −0.425 | 0.745 | –
CCCCCCCCCCCCCCCC(=O)N[C@@H](COP(=O)(O)O)C(=O)O [L-NASPA] | 0.003 | 1.002 | – | – | –
C1CCC[C@H]2CCCN3CC[C@@H](CCCCCC[C@@H]4CCCN5CC[C@@H](CC1)O[C@@H]45)O[C@@H]23 [Xestospongin C] | – | – | −0.456 | 0.729 | –
CC(=O)OCOC(c1ccc2ccccc2c1)P(=O)(OCOC(C)=O)OCOC(C)=O (stereo not drawn) [HNMPA-(AM)3] | −0.049 | 0.966 | – | – | –
CCN1C[C@]2(COC)[C@H](O)C[C@H](OC)[C@@]34[C@@H]5C[C@@]6(O)[C@H](OC(=O)c7ccccc7)[C@@H]5[C@@](OC(C)=O)([C@@H]([C@H](OC)[C@H]23)[C@@H]14)[C@@H](O)[C@@H]6OC [ACONITINE] | – | – | −0.278 | 0.825 | –
